Laboratory results: patent US10174013B2, “Benzimidazole derivatives as kinase inhibitors” (SELVITA S.A., priority 2012, dated 2019)
Read-outs that look alike come from different tables or passages of the source.

Columns and labels:
DYRK1 = DYRK1 (Homo sapiens (Human), UniProt Q13627); test: ADP-Glo Kinase Assay, DYRK1; format: biochemical; conditions: 1 μM compound; for inhibition at 1 µM: read-out: DYRK1A % INH (1 μM)
Procedure: (§1) Compounds of the present invention were tested for their inhibitory activity against Pim-1, Pim-2, Pim-3, Flt3 wt, Flt3 ITD, CDK2/E and DYRK1. The testing of the compounds was carried out using the ADP-Glo™ Kinase Assay from Promega Corporation (Madison, Wis., USA).
(§2) The ADP-Glo™ Kinase Assay is a luminescent ADP detection assay to measure kinase activity by quantifying the amount of ADP produced during a kinase reaction. The kinase assay is performed in kinase assay buffer (5 mM MOPS, pH 7.5, 5 mM MgCl2, 0.4 mM EDTA, 1.5 mM DTT). Test samples initially dissolved in DMSO at 10 mM were diluted with the assay buffer to 1000 nM. A 30 μL volume/well of a mixture of substrates containing ATP (final ATP concentration in each kinase assay was equal to its apparent ATP Km).
(§3) The assay was performed in two steps: first, after the kinase reaction, an equal volume of ADP-Glo™ Reagent was added to terminate the kinase reaction and deplete the remaining ATP. Second, the Kinase Detection Reagent was added to simultaneously convert ADP to ATP and allowed the newly synthesized ATP to be measured using a luciferase/luciferin reaction. The luminescent signal generated was proportional to the ADP concentration produced and was correlated with kinase activity. A microplate spectrophotometer (Synergy 2 multi-mode microplate reader [BioTek]) was used for detecting the luminescence. The data was normalized and the percent of inhibition was obtained according to the following equation: […]

MV4-11 cells = test: Growth inhibition, MTS assay, MV4-11; format: cell-based, Human; conditions: MTS cell viability, read-out: MV4-11 ED50
From the text: (§4) The following cell lines, were obtained and used in tests as outlined below: • Human myelomonocytic, biphenotypic leukemia MV4-11 cells (harboring a Flt3-ITD mutation); • Human Acute Myeloid Leukemia MOLM16 cells; • Human Acute Myeloid Leukemia MOLM13 cells (harboring a Flt3-ITD mutation); • Human Myeloid Leukemia KG-1 cells; • Human erythroleukemia HEL92 cells; • Human mantle cell lymphoma Jeko-1 cells; • Human hepatocellular carcinoma HepG2 cells; and • Human colon adenocarcinoma SW-480 cells.
(§5) The assays were carried out according to the following protocol, which is described as an example for the MV4-11 cells:
(§6) Ten thousand MV4-11 cells were inoculated into each well of a 96-well microplate (manufactured by Corning Corp.) using Iscove's MDM medium (culture medium) containing 10% fetal calf serum (FCS). The same day, a dimethyl sulfoxide (DMSO) solution of each test compound prepared in a concentration of 10 mmol/L was further diluted with DMSO to the desired concentrations (0.1, 0.5, 1, 2.5, 5 and 10 micromol/L), and the diluted solution was added to each well. The individual wells were further cultured in 5% carbon dioxide at 37° C. for 72 hours. […] Briefly, 10 μl MTS (3-(4,5-Dimethyl-2-thiazolyl)-5-(carboxymethoxyphenyl)-2-(4-sulfophenyl)-2H-tetrazolium was added to each well, and culturing was performed in 5% carbon dioxide at 37° C. for 2 hours. After this incubation and using a microplate spectrophotometer (Synergy 2 multi-mode microplate reader (BioTek)), the absorbance of each well was measured at 490 nm. The value for cells not incubated with a test compound was designated as 100%. By comparing these values with the absorbance difference obtained at the well in which each test compound was added, the cell viability (% viability) after treatment with the test compound was calculated.

Pim-1 = Pim-1 (Homo sapiens (Human), UniProt P11309); test: ADP-Glo Kinase Assay, Pim-1; format: biochemical; conditions: 1 μM compound; for inhibition at 1 µM: read-out: Pim-1 % INH (1 μM)
Procedure: as §1, §2, §3

HEL92 cells = test: Growth inhibition, MTS assay, HEL92; format: cell-based, Human; conditions: MTS cell viability, read-out: HEL92 ED50
From the text: as §4, §5, §6

HepG2 cells = test: Growth inhibition, MTS assay, HepG2; format: cell-based, Human; conditions: MTS cell viability, read-out: HepG2 ED50
From the text: as §4, §5, §6

FLT3wt = FLT3wt (Homo sapiens (Human), UniProt P36888); test: ADP-Glo Kinase Assay, Flt3 wt; format: biochemical; conditions: 1 μM compound; for inhibition at 1 µM: read-out: Flt3wt % INH (1 μM)
Procedure: as §1, §2, §3

CDK2/E = CDK2/E (Homo sapiens (Human), UniProt P24941); test: ADP-Glo Kinase Assay, CDK2/E; format: biochemical; conditions: 1 μM compound
Procedure: as §1, §2, §3

Sequence of Pim-1 (P11309 whole entry): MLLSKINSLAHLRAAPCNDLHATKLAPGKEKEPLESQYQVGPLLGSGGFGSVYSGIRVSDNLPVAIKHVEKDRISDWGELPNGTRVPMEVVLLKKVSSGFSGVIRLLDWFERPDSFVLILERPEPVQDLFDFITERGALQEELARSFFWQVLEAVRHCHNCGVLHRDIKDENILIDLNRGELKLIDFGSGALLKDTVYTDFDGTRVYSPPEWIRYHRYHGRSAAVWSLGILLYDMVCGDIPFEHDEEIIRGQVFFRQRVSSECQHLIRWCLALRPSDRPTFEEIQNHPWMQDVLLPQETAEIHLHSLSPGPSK
Sequence of FLT3wt (P36888 27-993): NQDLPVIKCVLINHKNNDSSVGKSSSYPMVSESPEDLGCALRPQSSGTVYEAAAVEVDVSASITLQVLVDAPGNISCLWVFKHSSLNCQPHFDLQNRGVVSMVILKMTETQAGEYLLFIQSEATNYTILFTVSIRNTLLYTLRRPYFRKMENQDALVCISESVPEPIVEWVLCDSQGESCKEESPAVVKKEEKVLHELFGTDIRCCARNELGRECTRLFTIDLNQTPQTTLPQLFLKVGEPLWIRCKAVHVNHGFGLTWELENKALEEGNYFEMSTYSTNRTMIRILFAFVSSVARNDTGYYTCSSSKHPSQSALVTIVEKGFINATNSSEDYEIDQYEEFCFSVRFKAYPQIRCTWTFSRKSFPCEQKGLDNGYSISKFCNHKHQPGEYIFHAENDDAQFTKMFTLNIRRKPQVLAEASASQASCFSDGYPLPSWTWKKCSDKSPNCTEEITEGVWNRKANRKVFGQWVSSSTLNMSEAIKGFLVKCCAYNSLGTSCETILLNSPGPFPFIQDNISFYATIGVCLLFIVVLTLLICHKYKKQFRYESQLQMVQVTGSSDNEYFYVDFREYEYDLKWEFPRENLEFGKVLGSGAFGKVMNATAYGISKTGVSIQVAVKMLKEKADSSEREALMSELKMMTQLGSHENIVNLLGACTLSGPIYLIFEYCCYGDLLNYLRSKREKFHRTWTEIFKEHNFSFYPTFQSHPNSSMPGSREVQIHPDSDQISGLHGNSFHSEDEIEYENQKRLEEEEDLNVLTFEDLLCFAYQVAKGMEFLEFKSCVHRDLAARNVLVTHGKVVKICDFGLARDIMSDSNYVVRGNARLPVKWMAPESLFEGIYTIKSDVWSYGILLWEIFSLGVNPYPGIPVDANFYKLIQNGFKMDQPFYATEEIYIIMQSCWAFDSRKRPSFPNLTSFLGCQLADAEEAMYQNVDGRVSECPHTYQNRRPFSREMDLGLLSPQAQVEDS

| DYRK1A % INH (1 μM) (DYRK1) [%] | IC50 (MV4-11 cells; 72 hours) [µM] | Pim-1 % INH (1 μM) (Pim-1) [%] | IC50 (HepG2 cells; 72 hours) [µM] | inhibition at 1 µM (Pim-1) [%] | Molecule | IC50 (HEL92 cells; 72 hours) [µM] | further results |
| --- | --- | --- | --- | --- | --- | --- | --- |
|  |  |  |  | > 95 | CCn1c(N2CCC[C@H](NC)C2)nc2c([N+](=O)[O-])c(Br)c(Br)cc21 [Example 1DZ] |  |  |
| 92 | 0.2 | >95 | 0.4 |  | O=[N+]([O-])c1c(Br)c(Br)cc2c1nc(N1CCNCC1)n2C1CCC1 [Example 1DG] | 1.8 |  |
|  |  |  |  | > 95 | CC(C)n1c(N2CC(N)C2)nc2c([N+](=O)[O-])c(Br)c(Br)cc21 [Example 1CX] |  | inhibition at 1 µM (DYRK1): 73%; IC50 (MV4-11 cells; Homo sapiens, MV4-11, 72 h): 1.2 µM; inhibition at 1 µM (FLT3wt): 44%; IC50 (HEL92 cells; Homo sapiens, 72 h): 4.1 µM; IC50 (HepG2 cells; Homo sapiens, HepG2, 72 h): 3.1 µM |
|  | 2.1 | >95 | 2.8 |  | CC(C)n1c(N2CC[C@@H](N)C2)nc2c([N+](=O)[O-])c(Br)c(F)cc21 [Example 1CY] | 8.9 | Flt3wt % INH (1 μM) (FLT3wt): <5% |
| 23 | 2.0 | >95 | 5.3 |  | Cl.N[C@H]1CCN(c2nc3c([N+](=O)[O-])c(Br)c(Br)cc3n2CC2CC2)C1 [Example 1CK] | 6.9 | Flt3wt % INH (1 μM) (FLT3wt): 30%; CDK2/E % INH (1 μM) (CDK2/E): 24% |
| 55 | 2.0 | >95 | 3.7 |  | N[C@@H]1CCN(c2nc3c([N+](=O)[O-])c(Br)c(Br)cc3n2CCCO)C1 [Example 1DF] |  | Flt3wt % INH (1 μM) (FLT3wt): 18% |
| 44 | 0.6 | >95 | 1.2 |  | CC(C)n1c(N2CCC(N)CC2)nc2c([N+](=O)[O-])c(Br)c(Br)cc21 [Example 1CP] | 5.8 | Flt3wt % INH (1 μM) (FLT3wt): 32%; CDK2/E % INH (1 μM) (CDK2/E): 39% |
|  | 4.3 | 93 | 2.2 |  | CCn1c(NC2CCC(N)CC2)nc2c([N+](=O)[O-])c(Br)c(Br)cc21 (stereo not drawn) [Example 1DO] |  |  |
| 95 | 0.8 | >95 | 2.6 |  | CCCn1c(N2CC[C@@H](N)C2)nc2c([N+](=O)[O-])c(Br)c(Br)cc21 [Example 1CM] | 5.2 | Flt3wt % INH (1 μM) (FLT3wt): 26% |
|  |  |  |  | > 95 | CC(C)n1c(N2CCNC(CO)C2)nc2c([N+](=O)[O-])c(Br)c(Br)cc21 (stereo not drawn) [Example 22AD, {4-[5,6-dibromo-4-nitro-1-(propan-2-yl)-1H-1,3-benzodiazol-2-yl]piperazin-2-yl}methanol] |  | inhibition at 1 µM (DYRK1): 31%; IC50 (MV4-11 cells; Homo sapiens, MV4-11, 72 h): 0.7 µM; IC50 (HEL92 cells; Homo sapiens, 72 h): 6.2 µM; IC50 (HepG2 cells; Homo sapiens, HepG2, 72 h): 1.2 µM |
|  |  |  |  | 95 | O=[N+]([O-])c1c(Br)c(Br)cc2c1nc(N1CCNCC1)n2CCO [Example 1DJ] |  | inhibition at 1 µM (DYRK1): > 95%; IC50 (MV4-11 cells; Homo sapiens, MV4-11, 72 h): 0.6 µM; IC50 (HEL92 cells; Homo sapiens, 72 h): 6.7 µM; IC50 (HepG2 cells; Homo sapiens, HepG2, 72 h): 2.1 µM |

Further lines, the molecule ahead of its results:

| Molecule | DYRK1A % INH (1 μM) (DYRK1) [%] | IC50 (MV4-11 cells; 72 hours) [µM] | Pim-1 % INH (1 μM) (Pim-1) [%] | IC50 (HepG2 cells; 72 hours) [µM] | inhibition at 1 µM (Pim-1) [%] | IC50 (HEL92 cells; 72 hours) [µM] | further results |
| --- | --- | --- | --- | --- | --- | --- | --- |
| 5-bromo-6-methyl-4-nitro-2-(piperazin-1-yl)-1-(propan-2-yl)-1H-1,3-benzodiazole [Example 4B] | 51 | 1.2 | >95 | 1.8 |  | 4.1 |  |
| N#Cc1c(Br)c(Br)cc2c1nc(N1CC[C@@H](N)C1)n2[C@H]1CCNC1 [Example 8G, 2-[(3R)-3-aminopyrrolidin-1-yl]-5,6-dibromo-1-[(3S)-pyrrolidin-3-yl]-1H-1,3-benzodiazole-4-carbonitrile] |  |  |  |  | > 95 |  |  |
| CC[C@H]1CNCCN1c1nc2c([N+](=O)[O-])c(Br)c(Br)cc2n1C(C)C [Example 1EA] |  |  |  |  | > 95 |  |  |
| CCn1c(N2CCNC[C@@H]2C)nc2c(C#N)c(Br)c(Br)cc21 [Example 1DP] |  |  |  |  | > 95 |  | inhibition at 1 µM (DYRK1): > 95%; IC50 (MV4-11 cells; Homo sapiens, MV4-11, 72 h): 0.1 µM; inhibition at 1 µM (FLT3wt): 57%; IC50 (HEL92 cells; Homo sapiens, 72 h): 0.5 µM; IC50 (HepG2 cells; Homo sapiens, HepG2, 72 h): 0.2 µM |
| COC1CN(c2nc3c([N+](=O)[O-])c(Br)c(Br)cc3n2C(C)C)CC1N (stereo not drawn) [Example 1EB] |  |  |  |  | > 95 |  |  |
| CCn1c(N2CCNCC2C)nc2c([N+](=O)[O-])c(Cl)c(Cl)cc21 (stereo not drawn) [Example 1DA] | 36 | 0.5 | 91 | 0.9 |  | 1.1 |  |
| CC(C)n1c(NC2CCNCC2)nc2c([N+](=O)[O-])c(Br)c(Br)cc21 [Example 1DK] | 25 | 5.5 | >95 | 5.7 |  | 5.8 |  |
| CC(C)n1c(NC2CCC(N)CC2)nc2c([N+](=O)[O-])c(Br)c(Br)cc21 (stereo not drawn) [Example 1CQ] | 28 | 1.7 | >95 |  |  | 6.0 | Flt3wt % INH (1 μM) (FLT3wt): 17%; CDK2/E % INH (1 μM) (CDK2/E): 50%; IC50 (HepG2 cells; Homo sapiens, HepG2, 72 h): 2 µM |
| CC(C)n1c(N[C@@H]2CCCNC2)nc2c([N+](=O)[O-])c(Br)c(Br)cc21 [Example 1CA] | 64 | 2.6 | 77 | 1.8 |  | 9.7 |  |
| CC(C)n1c(N2CCNCC2CO)nc2c([N+](=O)[O-])c(Br)c(Br)cc21 (stereo not drawn) [Example 1DN] | 38 | 0.5 | >95 | 0.9 |  | 4.5 | Flt3wt % INH (1 μM) (FLT3wt): 55% |
| O=[N+]([O-])c1c(Br)c(Br)cc2c1nc(N[C@@H]1CCNC1)n2CC1CC1 [Example 1CJ] |  | 5.5 |  | 5.3 |  | 5.5 |  |
| Cc1c(Br)cc2c(nc(N3CCNCC3)n2C(C)C)c1[N+](=O)[O-] [Example 4A, 5-methyl-6-bromo-4-nitro-2-(piperazin-1-yl)-1-(propan-2-yl)-1H-1,3-benzodiazole] |  |  |  |  | 81 |  | IC50 (MV4-11 cells; Homo sapiens, MV4-11, 72 h): 1 µM; IC50 (HEL92 cells; Homo sapiens, 72 h): 8.7 µM |
| CC(C)n1c(N[C@@H]2CCNC2)nc2c([N+](=O)[O-])c(Br)c(Br)cc21 [Example 1BF] |  | 2.0 |  | 2.3 |  | 7.6 |  |
| CC(C)n1c(NC2CNC2)nc2c([N+](=O)[O-])c(Br)c(Br)cc21 [Example 1CR] | 70 | 1.1 | >95 | 1.9 |  | 8.7 | Flt3wt % INH (1 μM) (FLT3wt): 44% |
| CC(C)n1c(N2CCNCC2)nc2c([N+](=O)[O-])c(Br)c(F)cc21 [Example 1CL] | 45 | 1.0 | 82 | 1.5 |  | 2.4 |  |
| CCn1c(N2CCNCC2)nc2c([N+](=O)[O-])c(Cl)c(Cl)cc21 [Example 1CN] | 27 | 3.3 | 76 | 4.5 |  | 9.4 |  |
| O=[N+]([O-])c1c(Br)c(Br)cc2c1nc(C1CCNCC1)n2CC1CCNCC1 [Example 27A, 5,6-dibromo-4-nitro-2-(piperidin-4-yl)-1-(piperidin-4-ylmethyl)-1H-1,3-benzodiazole] |  |  |  |  | 56 |  |  |
